Measured values reported in patent US20120202822A1, “COMBINATION” (priority 2009, published 2012).
One block for each compound: values may come before it.

Legend:
Assay in all cases: Fixed Ratio Drug Combination Assay, cell proliferation (CellTiter Glo)
Format in all cases: cell-based, human
COLO320DM = conditions: 72 hours; for IC50: Homo sapiens, COLO 320DM, read-out: gIC50
Protocol: (§1) Combination drug tests with Compounds A and B were conducted using a panel of cell lines from human colon cancers (n=25) (Table 1). Cell lines were purchased commercially [from ATCC (Manassas, Va., USA) or DSMZ (Braunschweig, Germany)] and grown in RPMI-1640 supplemented with 2 mM glutamine, 1 mM sodium pyruvate and 10% fetal bovine serum and maintained at 37° C. and 5% CO2 in a humid incubator.
(§2) The dilution design of the Fixed Ratio Drug Combination Assay can be seen in FIG. 1. First, the test compounds were prepared as 10 mM stocks in 100% dimethyl sulfoxide (DMSO). Further dilutions of the compounds were made with DMSO. The first test compound (designated as Compound A) is diluted horizontally in a 96 well microtiter plate in rows B-E using a 3-fold dilution series for 10 dilution points. A second test compound (designated as Compound B) is diluted horizontally in a separate 96 well microtiter plate in rows D-G using a 3-fold dilution series for 10 dilution points. The two compounds are combined using equal volumes from each drug plate into cell culture media. […] Compound A is individually titrated in rows B and C, while only Compound B is dosed in rows F and G of the plate. An additional 1:10 dilution of the drugs is performed in cell culture media prior to addition to the cells. Drug addition to the cells results in a further 1:2 dilution of drugs. The total dilution of the drug plate to the cells is […]. The final dosing concentration range for Compound B was 0.1-1000.0 nM and was 0.5-10000.0 nM for Compound A. The positive control consists of culture media with DMSO at 0.1% and cells and no drug. The negative control consists of culture media with DMSO at 0.1%. solution.
(§3) Assays were performed in 96 well microtiter plates with appropriate seeding densities estimated from previous studies of each cell line. Following dosing, the cell lines are incubated at 37° C., 5% CO2 in humid air for 72 hours. Cell proliferation was measured using the CellTiter Glo (Promega Corporation, Madison, Wis., USA) reagent according to the manufacturer's protocol. The plates are treated with CellTiter Glo solution and are analyzed for RLU (relative light units) using a Molecular Devices SpectraMax M5 (Sunnyvale, Calif., USA) plate reader.
(§4) Results are expressed as a percentage of the number of cells present at the time of compound addition value (T0) and plotted against compound(s) concentration. The percent intensity values were used in model 205 of the IDBS XLfit plug-in for Microsoft Excel to calculate gIC50 values using a 4 parameter logistical fit. Background correction is made by subtraction of values from wells containing no cells. The midpoint of the growth window (the gIC50) falls half way between the number of cells at the time of compound addition and the growth of control cells treated with DMSO at 72 hrs. The number of cells at time zero is divided from the intensity value at the bottom of the response curve (Ymin) to generate a measure for cell death (Ymin/T0). A value below 1 for Ymin/T0 indicates stronger potency with the treatment when compared to higher values. For duplicate assays, all response metrics are averaged for presentation.
(§5) Three independent metrics were used to analyze the combinatorial effects on growth inhibition of Compound B and Compound A. • 1. Excess over Highest Single Agent (EOHSA)—One standard criterion for measuring drug combinatorial effects is analyzing the effects on cell growth inhibition in absolute terms. In this case, the combination of drugs is compared to the more responsive of the two individual treatments (single agent). For each combination experiment, the percent effect relative to the highest single agent for each dose along the curve is generated. This measure of “Excess of Highest Single Agent (EOHSA)” is one of the criteria used for evaluating synergy of drug combinations. […]

DLD1 = conditions: for Ymin/T0: 72 hours; for IC50: Homo sapiens, DLD-1, 72 hours, read-out: gIC50
Protocol: as §1, §2, §3, §4, §5

HCC2998 = conditions: for Ymin/T0: 72 hours; for IC50: Homo sapiens, HCC 2998, 72 hours, read-out: gIC50
Protocol: as §1, §2, §3, §4, §5

HCT116 = conditions: for Ymin/T0: 72 hours; for IC50: Homo sapiens, HCT-116, 72 hours, read-out: gIC50
Protocol: as §1, §2, §3, §4, §5

HCT15 = conditions: for Ymin/T0: 72 hours; for IC50: Homo sapiens, HCT-15, 72 hours, read-out: gIC50
Protocol: as §1, §2, §3, §4, §5

HCT8 = conditions: for Ymin/T0: 72 hours; for IC50: Homo sapiens, HCT-8, 72 hours, read-out: gIC50
Protocol: as §1, §2, §3, §4, §5

HT29 = conditions: for Ymin/T0: 72 hours; for IC50: Homo sapiens, HT-29, 72 hours, read-out: gIC50
Protocol: as §1, §2, §3, §4, §5

KM12 = conditions: 72 hours; for IC50: Homo sapiens, read-out: gIC50
Protocol: as §1, §2, §3, §4, §5

LS1034 = conditions: for Ymin/T0: 72 hours; for IC50: Homo sapiens, LS-1034, 72 hours, read-out: gIC50
Protocol: as §1, §2, §3, §4, §5

LS174T = conditions: 72 hours; for IC50: Homo sapiens, read-out: gIC50
Protocol: as §1, §2, §3, §4, §5

NCIH508 = conditions: for Ymin/T0: 72 hours; for IC50: Homo sapiens, NCI-H508, 72 hours, read-out: gIC50
Protocol: as §1, §2, §3, §4, §5

NCIH630 = conditions: for Ymin/T0: 72 hours; for IC50: Homo sapiens, NCI-H630, 72 hours, read-out: gIC50
Protocol: as §1, §2, §3, §4, §5

NCIH716 = conditions: for Ymin/T0: 72 hours; for IC50: Homo sapiens, NCI-H716, 72 hours, read-out: gIC50
Protocol: as §1, §2, §3, §4, §5

NCIH747 = conditions: for Ymin/T0: 72 hours; for IC50: Homo sapiens, NCI-H747, 72 hours, read-out: gIC50
Protocol: as §1, §2, §3, §4, §5

RKO = conditions: 72 hours; for IC50: Homo sapiens, read-out: gIC50
Protocol: as §1, §2, §3, §4, §5

SW1417 = conditions: 72 hours; for IC50: Homo sapiens, read-out: gIC50
Protocol: as §1, §2, §3, §4, §5

SW480 = conditions: 72 hours; for IC50: Homo sapiens, read-out: gIC50
Protocol: as §1, §2, §3, §4, §5

SW48 = conditions: 72 hours; for IC50: Homo sapiens, read-out: gIC50
Protocol: as §1, §2, §3, §4, §5

SW837 = conditions: 72 hours; for IC50: Homo sapiens, read-out: gIC50
Protocol: as §1, §2, §3, §4, §5

SW948 = conditions: 72 hours; for IC50: Homo sapiens, read-out: gIC50
Protocol: as §1, §2, §3, §4, §5

T84 = conditions: 72 hours; for IC50: Homo sapiens, read-out: gIC50
Protocol: as §1, §2, §3, §4, §5

IC50 (COLO320DM): > 10000 nM
IC50 (DLD1): 199 nM
IC50 (HCC2998): 2400 nM
IC50 (HCT116): > 10000 nM
IC50 (HCT15): > 10000 nM
IC50 (HCT8): > 10000 nM
IC50 (HT29): 17.2 nM
IC50 (SW1417): 246 nM
IC50 (SW480): > 10000 nM
IC50 (SW48): > 10000 nM
IC50 (SW837): > 10000 nM
IC50 (SW948): > 10000 nM
Structure (SMILES): CC(C)(C)c1nc(-c2cccc(NS(=O)(=O)c3c(F)cccc3F)c2F)c(-c2ccnc(N)n2)s1 [Compound A, N-{3-[5-(2-amino-4-pyrimidinyl)-2-(1,1-dimethylethyl)-1,3-thiazol-4-yl]-2-fluorophenyl}-2,6-difluorobenzenesulfonamide]
Ymin/T0 (COLO320DM): 4.9
Ymin/T0 (DLD1): 6.7
Ymin/T0 (HCC2998): 2.8
Ymin/T0 (HCT116): 9.2
Ymin/T0 (HCT15): 6.1
Ymin/T0 (HCT8): 9.2
Ymin/T0 (HT29): 4.0
Ymin/T0 (KM12): 8.8
IC50 (KM12): > 10000 nM
Ymin/T0 (LS1034): 1.9
IC50 (LS1034): > 10000 nM
Ymin/T0 (LS174T): 7.0
IC50 (LS174T): > 10000 nM
Ymin/T0 (NCIH508): 2.1
IC50 (NCIH508): 366 nM
Ymin/T0 (NCIH630): 1.9
IC50 (NCIH630): 5000 nM
Ymin/T0 (NCIH716): 1.3
IC50 (NCIH716): > 10000 nM
Ymin/T0 (NCIH747): 1.3
IC50 (NCIH747): > 10000 nM
Ymin/T0 (RKO): 6.7
IC50 (RKO): 8950 nM
Ymin/T0 (SW1417): 1.1
Ymin/T0 (SW480): 2.9
Ymin/T0 (SW48): 4.7
Ymin/T0 (SW837): 2.3
Ymin/T0 (SW948): 1.5
Ymin/T0 (T84): 2.0
IC50 (T84): > 10000 nM

IC50 (COLO320DM): 4.7 nM
IC50 (DLD1): 20.5 nM
IC50 (HCC2998): 4.7 nM
IC50 (HCT116): 34.2 nM
IC50 (HCT15): 7.2 nM
IC50 (HCT8): 8.4 nM
IC50 (HT29): 7.4 nM
IC50 (SW1417): 1.4 nM
IC50 (SW480): 5.4 nM
IC50 (SW48): 2.6 nM
IC50 (SW837): 6.4 nM
IC50 (SW948): 0.3 nM
Structure (SMILES): COc1ncc(-c2ccc3nccc(-c4ccnnc4)c3c2)cc1NS(=O)(=O)c1ccc(F)cc1F [Compound B, 2,4-difluoro-N-{2-(methyloxy)-5-[4-(4-pyridazinyl)-6-quinolinyl]-3-pyridinyl}benzenesulfonamide]
Ymin/T0 (COLO320DM): 1.5
Ymin/T0 (DLD1): 1.8
Ymin/T0 (HCC2998): 0.9
Ymin/T0 (HCT116): 4.1
Ymin/T0 (HCT15): 2.4
Ymin/T0 (HCT8): 1.6
Ymin/T0 (HT29): 2.0
Ymin/T0 (KM12): 1.4
IC50 (KM12): 22.1 nM
Ymin/T0 (LS1034): 0.5
IC50 (LS1034): 1.4 nM
Ymin/T0 (LS174T): 0.8
IC50 (LS174T): 34.1 nM
Ymin/T0 (NCIH508): 0.5
IC50 (NCIH508): 1.2 nM
Ymin/T0 (NCIH630): 0.9
IC50 (NCIH630): 18.3 nM
Ymin/T0 (NCIH716): 0.7
IC50 (NCIH716): 1.1 nM
Ymin/T0 (NCIH747): 0.5
IC50 (NCIH747): 2.7 nM
Ymin/T0 (RKO): 3.0
IC50 (RKO): 10.9 nM
Ymin/T0 (SW1417): 1.3
Ymin/T0 (SW480): 1.1
Ymin/T0 (SW48): 0.4
Ymin/T0 (SW837): 0.8
Ymin/T0 (SW948): 0.4
Ymin/T0 (T84): 0.7
IC50 (T84): 6 nM
